PubChem BioAssay AID1963875 (Molecular Pharmacology Branch, DTP, NCI, 2024)

Tested on: KRAS-mutant PDC complex spheroid viability
Experiment: Anticancer human tumor 186277-243-T-J2-PDC patient-derived colon adenocarcinoma cell line growth inhibition [KRAS2]
Conditions: for viability, T/C: stronger effect = lower value
In short: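 Combination screen of spheroid viability in tumor-cell co-cultures with endothelial (HUVEC) and mesenchymal stem cell stroma. Each agent was tested in half-log dilutions, topping at clinical Cmax or at 10 microM without a known Cmax.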

[1] = curve of first compound, second compound 0.1 µM
[2] = curve of first compound, second compound 0.316 µM
[3] = curve of first compound, second compound 1 µM
[4] = curve of first compound, second compound 3.16 µM
[5] = curve of first compound, second compound 10 µM
[6] = second compound 0.1 µM, first compound 0.0316 µM
[7] = second compound 0.1 µM, first compound 0.1 µM
[8] = second compound 0.1 µM, first compound 0.316 µM
[9] = second compound 0.1 µM, first compound 1 µM
[10] = second compound 0.1 µM, first compound 3.16 µM
[11] = second compound 0.1 µM, first compound 10 µM
[12] = second compound 0.316 µM, first compound 0.0316 µM
[13] = second compound 0.316 µM, first compound 0.1 µM
[14] = second compound 0.316 µM, first compound 0.316 µM
[15] = second compound 0.316 µM, first compound 1 µM
[16] = second compound 0.316 µM, first compound 3.16 µM
[17] = second compound 0.316 µM, first compound 10 µM
[18] = second compound 1 µM, first compound 0.0316 µM
[19] = second compound 1 µM, first compound 0.1 µM
[20] = second compound 1 µM, first compound 0.316 µM
[21] = second compound 1 µM, first compound 1 µM
[22] = second compound 1 µM, first compound 3.16 µM
[23] = second compound 1 µM, first compound 10 µM
[24] = second compound 3.16 µM, first compound 0.0316 µM
[25] = second compound 3.16 µM, first compound 0.1 µM
[26] = second compound 3.16 µM, first compound 0.316 µM
[27] = second compound 3.16 µM, first compound 1 µM
[28] = second compound 3.16 µM, first compound 3.16 µM
[29] = second compound 3.16 µM, first compound 10 µM
[30] = second compound 10 µM, first compound 0.0316 µM
[31] = second compound 10 µM, first compound 0.1 µM
[32] = second compound 10 µM, first compound 0.316 µM
[33] = second compound 10 µM, first compound 1 µM
[34] = second compound 10 µM, first compound 3.16 µM
[35] = second compound 10 µM, first compound 10 µM
[36] = second compound 0.1 µM, first compound 0.00316 µM
[37] = second compound 0.1 µM, first compound 0.01 µM
[38] = second compound 0.316 µM, first compound 0.00316 µM
[39] = second compound 0.316 µM, first compound 0.01 µM
[40] = second compound 1 µM, first compound 0.00316 µM
[41] = second compound 1 µM, first compound 0.01 µM
[42] = second compound 3.16 µM, first compound 0.01 µM
[43] = second compound 10 µM, first compound 0.00316 µM
[44] = second compound 10 µM, first compound 0.01 µM
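For viability, T/C in this document: viability read after seven days of compound exposure; 100% = DMSO vehicle-treated spheroids so lower means less viable.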

| Structure (SMILES) | IC50 [1] [nM] | IC50 [2] [nM] | IC50 [3] [nM] | IC50 [4] [nM] | IC50 [5] [nM] | viability, T/C [6] [%] | viability, T/C [7] [%] | viability, T/C [8] [%] | viability, T/C [9] [%] | viability, T/C [12] [%] | viability, T/C [13] [%] | viability, T/C [14] [%] | viability, T/C [15] [%] | viability, T/C [18] [%] | viability, T/C [19] [%] | viability, T/C [20] [%] | viability, T/C [24] [%] | viability, T/C [25] [%] | viability, T/C [30] [%] | viability, T/C [31] [%] | also measured |
| --- | --- | --- | --- | --- | --- | --- | --- | --- | --- | --- | --- | --- | --- | --- | --- | --- | --- | --- | --- | --- | --- |
| CC1(C)CCC(CN2CCN(c3ccc(C(=O)NS(=O)(=O)c4ccc(NCC5CCOCC5)c([N+](=O)[O-])c4)c(Oc4cnc5[nH]ccc5c4)c3)CC2)=C(c2ccc(Cl)cc2)C1 + CNCc1ccccc1-c1csc(C(C)Nc2nc(C)nc3cc(OC)c(OC)cc23)c1 | 2130 | 2260 | 2160 | 90.7 | < 31.6 | 120 | 102 | 107 | 110 | 115 | 117 | 117 | 119 | 126 | 125 | 112 | 80.2 | 44.8 | 0.17 | 0.16 | viability, T/C [10]: 19.2%; viability, T/C [11]: 1.52%; viability, T/C [16]: 22.1%; viability, T/C [17]: 1.59%; viability, T/C [21]: 116%; viability, T/C [22]: 17.2%; viability, T/C [23]: 0.88%; viability, T/C [26]: 29.2%; viability, T/C [27]: 7.62%; viability, T/C [28]: 0.22%; viability, T/C [29]: 0.13%; viability, T/C [32]: 0.14%; viability, T/C [33]: 0.12%; viability, T/C [34]: 0.12%; viability, T/C [35]: 0.2% |
| CC1(C)CCC(CN2CCN(c3ccc(C(=O)NS(=O)(=O)c4ccc(NCC5CCOCC5)c([N+](=O)[O-])c4)c(Oc4cnc5[nH]ccc5c4)c3)CC2)=C(c2ccc(Cl)cc2)C1 + COc1cc2nc(C)nc(NC(C)c3cc(N)cc(C(F)(F)F)c3)c2cc1OC1CCOC1 | 2190 | 2070 | 1980 | 2070 | 472 | 102 | 99.2 | 108 | 99.7 | 92.5 | 107 | 104 | 103 | 104 | 108 | 110 | 106 | 103 | 77.3 | 91.8 | viability, T/C [10]: 26.4%; viability, T/C [11]: 0.68%; viability, T/C [16]: 19.9%; viability, T/C [17]: 0.6%; viability, T/C [21]: 100%; viability, T/C [22]: 15.7%; viability, T/C [23]: 1.19%; viability, T/C [26]: 111%; viability, T/C [27]: 115%; viability, T/C [28]: 15.6%; viability, T/C [29]: 1.05%; viability, T/C [32]: 53.2%; viability, T/C [33]: 33.6%; viability, T/C [34]: 5.28%; viability, T/C [35]: 0.64% |
| CCN1CCN(Cc2ccc(Nc3ncc(F)c(-c4cc(F)c5nc(C)n(C(C)C)c5c4)n3)nc2)CC1 + COc1cc2nc(C)nc(NC(C)c3cc(N)cc(C(F)(F)F)c3)c2cc1OC1CCOC1 | > 1000 | > 1000 | > 1000 | 714 | 64 | 118 | 165 | 173 | 69.4 | 130 | 163 | 146 | 58 | 115 | 157 | 123 | 138 | 157 | 100 | 18.2 | viability, T/C [36]: 97.9%; viability, T/C [37]: 93.2%; viability, T/C [38]: 101%; viability, T/C [39]: 93.6%; viability, T/C [40]: 96%; viability, T/C [41]: 109%; viability, T/C [21]: 50.9%; viability, T/C (second compound 3.16 µM, first compound 0.00316 µM): 91.9%; viability, T/C [42]: 98.1%; viability, T/C [26]: 108%; viability, T/C [27]: 26.4%; viability, T/C [43]: 103%; viability, T/C [44]: 104%; viability, T/C [32]: 4.89%; viability, T/C [33]: 0.61% |
| Cn1ncnc1[C@H]1c2n[nH]c(=O)c3cc(F)cc(c23)N[C@@H]1c1ccc(F)cc1 + C=CC(=O)N1CCN(c2nc(=O)n(-c3c(C)ccnc3C(C)C)c3nc(-c4c(O)cccc4F)c(F)cc23)C(C)C1 | > 100 | > 100 | > 100 | > 100 | 3.32 | 95 | 75.8 |  |  | 87.8 | 79 |  |  | 85.2 | 67.2 |  | 61.6 | 50.6 | 32.9 | 24.1 | viability, T/C (second compound 0.1 µM, first compound 0.000316 µM): 98.5%; viability, T/C (second compound 0.1 µM, first compound 0.001 µM): 97.1%; viability, T/C [36]: 111%; viability, T/C [37]: 105%; viability, T/C (second compound 0.316 µM, first compound 0.000316 µM): 106%; viability, T/C (second compound 0.316 µM, first compound 0.001 µM): 114%; viability, T/C [38]: 105%; viability, T/C [39]: 103%; viability, T/C (second compound 1 µM, first compound 0.000316 µM): 106%; viability, T/C (second compound 1 µM, first compound 0.001 µM): 105%; viability, T/C [40]: 108%; viability, T/C [41]: 98.7%; viability, T/C (second compound 3.16 µM, first compound 0.000316 µM): 99.6%; viability, T/C (second compound 3.16 µM, first compound 0.001 µM): 101%; viability, T/C [42]: 76.5%; viability, T/C (second compound 10 µM, first compound 0.000316 µM): 45%; viability, T/C (second compound 10 µM, first compound 0.001 µM): 60.2%; viability, T/C [43]: 51%; viability, T/C [44]: 28.3% |
| CC(C)n1nc(-c2ccc3oc(N)nc3c2)c2c(N)ncnc21 |  |  |  |  |  |  |  |  |  |  |  |  |  |  |  |  |  |  |  |  | viability, T/C (compound 0.000316 µM): 95.7% [middle of 5 runs]; viability, T/C (compound 0.001 µM): 98.8% [middle of 5 runs]; viability, T/C (compound 0.00316 µM): 77.8% [middle of 5 runs]; viability, T/C (compound 0.01 µM): 56.7% [middle of 5 runs]; viability, T/C (compound 0.0316 µM): 32.1% [middle of 5 runs]; viability, T/C (compound 0.1 µM): 19.2% [middle of 5 runs]; IC50 (curve of compound): 14.1 nM [middle of 5 runs] |
| CC(=O)OC12COC1CC(O)C1(C)C(=O)C(O)C3=C(C)C(OC(=O)C(O)C(NC(=O)OC(C)(C)C)c4ccccc4)CC(O)(C(OC(=O)c4ccccc4)C21)C3(C)C (stereo unspecified) + CC1OCC2(CCN(c3cnc(Sc4ccnc(N)c4Cl)c(N)n3)CC2)C1N | < 10 | < 10 | < 10 | < 10 | < 10 | 2.69 | 2.31 | 2.12 | 2.12 | 3.64 | 1.94 | 1.7 | 1.93 | 3.42 | 3.58 | 2.84 | 1.65 | 2.04 | 1.99 | 1.61 | viability, T/C [37]: 4.2%; viability, T/C [10]: 2.53%; viability, T/C [39]: 2.83%; viability, T/C [16]: 2.14%; viability, T/C [41]: 4.63%; viability, T/C [21]: 3.01%; viability, T/C [22]: 3.67%; viability, T/C [42]: 2.53%; viability, T/C [26]: 1.63%; viability, T/C [27]: 1.81%; viability, T/C [28]: 2.09%; viability, T/C [44]: 1.96%; viability, T/C [32]: 1.82%; viability, T/C [33]: 1.73%; viability, T/C [34]: 1.74% |
